The values below come from patent US7045631B2, “Substituted 2-thio-3, 5-dicyano-4-phenyl-6-aminopyridines and their use as adenosine receptor-selective ligands” (Bayer Aktiengesellschaft, priority 2001, dated 2006).

The nature of data set [1]: Pharmacokinetic investigations, rat. The note with it: plasma, po, 1 mg/kg p.o., read-out: Bioavailability following oral administration. In kind it is in vivo, rats. The method, then:
(§1) Pharmacokinetic data were determined after administering various substances i.v. or p.o. as solutions to mice, rats and dogs. For this, blood samples were collected up to 24 hours after administration. The concentrations of the unaltered substance were determined by bioanalytical methods (HPLC or HPLC-MS) in the plasma samples which were obtained from the blood samples. Pharmacokinetic parameters were subsequently ascertained from the plasma concentration time courses which had been obtained in this way. The following Table 2 gives the bioavailability in the different species.

Data set [2] is described as follows: Pharmacokinetic investigations, mouse. The note with it: plasma, po, 1 mg/kg p.o., read-out: Bioavailability following oral administration. In kind it is in vivo, mice. The method, then:
as §1

A short description of data set [3]: Pharmacokinetic investigations, dog. Type of data set: in vivo, dogs. The note with it: plasma, po, 1 mg/kg p.o., read-out: Bioavailability following oral administration. The method, then:
as §1

Data set [4] has as its target T1, adenosine A2a receptors (Homo sapiens, UniProt P29274).
T1 construct: expressed in transfected cells; host or cells: CHO (Chinese Hamster Ovary)
The data set can be described thus: Adenosine agonism indirectly by way of gene expression (luciferase test), A2a cells. Type of data set: cell-based. The note with it: percent of the maximum stimulation achieved by NECA. An excerpt:
(§2) Cells of the CHO (Chinese Hamster Ovary) permanent cell line are transfected stably with the cDNA for the adenosine receptor subtypes A1, A2a and A2b. The adenosine A1 receptors are coupled to the adenylate cyclase by way of Gi proteins, while the adenosine A2a and A2b receptors are coupled by way of Gs proteins. In correspondence with this, the formation of cAMP in the cell is inhibited or stimulated, respectively. After that, expression of the luciferase is modulated by way of a cAMP-dependent promoter. The luciferase test is optimized, with the aim of high sensitivity and reproducibility, low variance and good suitability for implementation on a robot system, by varying several test parameters, such as cell density, duration of the growth phase and the test incubation, forskolin concentration and medium composition. The following test protocol is used for pharmacologically characterizing cells and for the robot-assisted substance test screening:
(§3) The stock cultures are grown, at 37° C. and under 5% CO2, in DMEM/F12 medium containing 10% FCS (foetal calf serum) and in each case split 1:10 after 2–3 days. The test cultures are seeded in 384-well plates at the rate of from 1 000 to 3 000 cells per well and grown at 37° C. for approx. 48 hours. […] After that, 35 μl of a solution which is composed of 50% lysis reagent (30 mM disodium hydrogenphosphate, 10% glycerol, 3% TritonX100, 25 mM TrisHCl, 2 mM dithiothreitol (DTT), pH 7.8) and 50% luciferase substrate solution (2.5 mM ATP, 0.5 mM luciferin, 0.1 mM coenzyme A, 10 mM tricine, 1.35 mM magnesium sulphate, 15 mM DTT, pH 7.8) are added to the test cultures, the plates are shaken for approx. 1 minute and the luciferase activity is measured using a camera system.
(§4) The table gives the % values of the corresponding reference stimulus. The measured values for the A2a and A2b receptors are values in percent of the maximum stimulation achieved by NECA; the measured values for the A1 receptor are values in percent following direct prestimulation of the adenylate cyclase with 1μ molar forskolin (corresponds to the 100% value).

Data set [5] has as its target T2, adenosine A2b receptors (Homo sapiens, UniProt P29275).
T2 construct: expressed in transfected cells; host or cells: CHO (Chinese Hamster Ovary)
T2 sequence (P29275 1-332): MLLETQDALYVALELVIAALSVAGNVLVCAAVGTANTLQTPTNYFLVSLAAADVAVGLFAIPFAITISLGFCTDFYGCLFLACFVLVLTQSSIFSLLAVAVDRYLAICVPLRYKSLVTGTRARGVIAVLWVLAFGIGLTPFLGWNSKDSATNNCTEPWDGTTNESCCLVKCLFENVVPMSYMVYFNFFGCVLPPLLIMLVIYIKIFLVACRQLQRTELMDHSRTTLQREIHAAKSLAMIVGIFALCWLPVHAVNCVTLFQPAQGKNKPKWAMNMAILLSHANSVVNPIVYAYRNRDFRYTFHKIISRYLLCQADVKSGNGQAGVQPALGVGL
The data set is described as follows: Adenosine agonism indirectly by way of gene expression (luciferase test), A2b cells. The note with it: percent of the maximum stimulation achieved by NECA. Type of data set: cell-based.
Text: as §2, §3, §4

For data set [6], the target named is T3, adenosine A1 receptors (Homo sapiens, UniProt P30542).
T3 construct: expressed in transfected cells; host or cells: CHO (Chinese Hamster Ovary)
T3 sequence (P30542 1-326): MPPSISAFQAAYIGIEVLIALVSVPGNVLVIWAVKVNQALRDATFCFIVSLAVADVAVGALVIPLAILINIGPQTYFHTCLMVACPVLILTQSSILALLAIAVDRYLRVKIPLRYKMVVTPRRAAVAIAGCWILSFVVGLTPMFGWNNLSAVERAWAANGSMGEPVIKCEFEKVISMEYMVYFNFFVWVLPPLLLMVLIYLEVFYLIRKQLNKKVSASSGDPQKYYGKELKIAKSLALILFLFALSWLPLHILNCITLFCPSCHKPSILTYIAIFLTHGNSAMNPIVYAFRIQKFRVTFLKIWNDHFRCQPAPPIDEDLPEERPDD
The data set is described as follows: Adenosine agonism indirectly by way of gene expression (luciferase test), A1 cells. The settings on record: percent following prestimulation of adenylate cyclase with 1 μ molar forskolin (=100%), agonists give <100%. Type of data set: cell-based.
Text: as §2, §3, §4

T1 sequence (P29274 whole entry): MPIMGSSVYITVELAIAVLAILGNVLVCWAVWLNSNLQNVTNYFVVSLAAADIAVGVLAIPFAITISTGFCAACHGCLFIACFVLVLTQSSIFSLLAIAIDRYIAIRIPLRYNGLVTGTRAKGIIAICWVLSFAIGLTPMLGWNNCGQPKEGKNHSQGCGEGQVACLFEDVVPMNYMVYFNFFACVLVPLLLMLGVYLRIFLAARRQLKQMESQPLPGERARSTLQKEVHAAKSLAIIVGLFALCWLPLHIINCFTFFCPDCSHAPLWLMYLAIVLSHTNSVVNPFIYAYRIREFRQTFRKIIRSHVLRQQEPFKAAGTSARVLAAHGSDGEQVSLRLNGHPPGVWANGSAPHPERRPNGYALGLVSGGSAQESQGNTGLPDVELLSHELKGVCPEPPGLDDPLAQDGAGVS

`CC(=O)Nc1ccc(-c2c(C#N)c(N)nc(SCc3ccccn3)c2C#N)cc1` [Example 1, N-(4-{2-Amino-3,5-dicyano-6-[(2-pyridinylmethyl)sulphanyl]-4-pyridinyl}-phenyl)acetamide]: the bioavailability in data set [1] was 4.6%; in data set [2] it was 22.1%; in data set [3], 48.2%. In addition, the results for the “Stimulation of adenosine receptors, A2a, % of the reference stimulus” value in data set [4] (0.3 nmol compound), in data set [4] (1 nmol compound) and in data set [4] (10 nmol compound) were 1%, 24% and 57%, respectively. The “Stimulation of adenosine receptors, A2b, % of the reference stimulus” value in data set [5] (0.3 nmol compound) worked out at 29%; in data set [5] (1 nmol compound), 64%; in data set [5] (10 nmol compound), 88%. Besides, the “Stimulation of adenosine receptors, A1, % of the reference stimulus” value in data set [6] (0.3 nmol compound) is recorded as 44%; in data set [6] (1 nmol compound) it was 9%; in data set [6] (10 nmol compound), 5%.
